Measurements reported in PubChem BioAssay AID1259408 (Genetic Toxicology Data Bank (GENE-TOX), 2018).
Activity calls are given as the source filed them. The rule behind the calls is not given here.

Test system: GENE-TOX genotoxicity assays, various organisms and cells
Experiment: GENE-TOX mutagenicity studies
Conditions: for call: Assay Type: In vivo carcinogenicity studies
[1] = Species/Cell Type: Escherichia coli polA (W3119 vs P3478), Assay Type: Rec-assay, DNA effects (bacterial DNA repair), Assay Code: RE1T, Evaluation Type: Evaluation A (Pre-1980)
[2] = Species/Cell Type: Mouse prostate cells, Assay Type: Cell transformation, Assay Code: CTM-, Evaluation Type: Evaluation A (Pre-1980)
[3] = Species/Cell Type: Salmonella typhimurium (one or more of the five standard strains: TA98, TA100, TA1535, TA1537, and TA1538), Assay Type: Histidine reverse gene mutation, Ames assay, Assay Code: SAL+*, Activation: With metabolic activation, Evaluation Type: Evaluation A (Pre-1980)
[4] = Species/Cell Type: Nonhuman, Assay Code: CCG+, Evaluation Type: Evaluation A (Pre-1980)
[5] = Species/Cell Type: Saccharomyces cerevisiae, Assay Type: Mitotic recombination or gene conversion, Assay Code: YEH-, Evaluation Type: Evaluation A (Pre-1980)
[6] = Species/Cell Type: Drosophila melanogaster, Assay Type: Sex-linked recessive lethal gene mutation, Assay Code: SRL+, Evaluation Type: Evaluation A (Pre-1980)
[7] = Species/Cell Type: Nonhuman, Assay Type: Sister-chromatid exchange (SCE) in vitro, Assay Code: SC2+D, Dose Response: With dose response, Evaluation Type: Evaluation B (Post-1980)
[8] = Species/Cell Type: Mammalian polychromatic erythrocytes, Assay Type: Micronucleus test, chromosome aberrations, Assay Code: MNTT, Evaluation Type: Evaluation A (Pre-1980)
[9] = Species/Cell Type: Allium cepa, Assay Type: Chromosome aberrations, Assay Code: ALC+, Evaluation Type: Evaluation A (Pre-1980)
[10] = Species/Cell Type: Salmonella typhimurium (one or more of the five standard strains: TA98, TA100, TA1535, TA1537, and TA1538), Assay Type: Histidine reverse gene mutation, Ames assay, Assay Code: SAL+, Evaluation Type: Evaluation A (Pre-1980)
[11] = Species/Cell Type: Saccharomyces cerevisiae, Assay Type: Mitotic recombination or gene conversion, Assay Code: YEH+*, Activation: With metabolic activation, Evaluation Type: Evaluation A (Pre-1980)
[12] = Species/Cell Type: Allium cepa, Assay Type: Chromosome aberrations, Assay Code: ALC+D, Dose Response: With dose response, Evaluation Type: Evaluation A (Pre-1980)

Compound: O=C1c2ccccc2-c2ccccc21
- mutagenic call [1]: no conclusion

Compound: Cc1ccc2cc3c(c4c2c1CC4)[C@H](O)[C@@H](O)c1ccccc1-3
- mutagenic call (Species/Cell Type: Chinese hamster lung (V79) cells, Assay Type: Forward gene mutation at the HPRT or ouabain locus, Assay Code: V79-, Evaluation Type: Evaluation A (Pre-1980)): inactive; negative
- mutagenic call [2]: inactive; negative
- call (Species/Cell Type: Nonhuman, Assay Code: CCGT, Evaluation Type: Evaluation A (Pre-1980)): no conclusion
- mutagenic call [3]: active; positive

Compound: Cc1c2ccccc2c(CO)c2ccc3ccccc3c12
- mutagenic call (Species/Cell Type: Chinese hamster lung (V79) cells, Assay Type: Forward gene mutation at the HPRT or ouabain locus, Assay Code: V79+, Evaluation Type: Evaluation A (Pre-1980)): active; positive
- mutagenic call (Species/Cell Type: Escherichia coli polA (W3110 vs P3478), Assay Type: Rec-assay, DNA effects (bacterial DNA repair), Assay Code: RE2+, Evaluation Type: Evaluation A (Pre-1980)): active; positive
- mutagenic call [1]: no conclusion
- call [4]: active; positive
- mutagenic call [5]: inactive; negative
- mutagenic call [3]: active; positive
- mutagenic call (Species/Cell Type: Salmonella typhimurium, Assay Type: Forward and reverse gene mutation, host-mediated assay, Assay Code: HMA-, Evaluation Type: Evaluation A (Pre-1980)): inactive; negative

Compound: CC(=O)Nc1ccc(N=NN(C)C)cc1
- mutagenic call [6]: active; positive
- mutagenic call (Species/Cell Type: Saccharomyces cerevisiae, Assay Type: Mitotic recombination or gene conversion, Assay Code: YEH+/-*, Activation: With metabolic activation, Evaluation Type: Evaluation A (Pre-1980)): inactive; positive without activation, negative with activation

Compound: O=C1c2cc(O)cc(O)c2C(=O)c2c1cc1c(c2O)[C@@H]2C=CO[C@@H]2O1
- mutagenic call [3]: active; positive

Compound: CCOC(=O)N(OC(C)=O)C(C)=O
- mutagenic call [6]: active; positive
- mutagenic call (Species/Cell Type: Drosophila melanogaster, Sex: Male, Assay Type: Heritable translocation test, chromosome aberrations, Assay Code: DHTT, Evaluation Type: Evaluation A (Pre-1980)): no conclusion

Compound: Cc1cc(-c2ccc(N)c(C)c2)ccc1N
- mutagenic call (Species/Cell Type: Fischer rat embryo (RLV/1706) cells, Assay Type: Cell transformation, viral enhanced, Assay Code: CTR+, Evaluation Type: Evaluation A (Pre-1980)): active; positive
- mutagenic call (Species/Cell Type: Human diploid fibroblasts, Assay Type: Unscheduled DNA synthesis (UDS) in vitro, DNA effects, Assay Code: UDHT, Evaluation Type: Evaluation A (Pre-1980)): no conclusion
- mutagenic call (Species/Cell Type: Mammalian polychromatic erythrocytes, Assay Type: Micronucleus test, chromosome aberrations, Assay Code: MNT+, Evaluation Type: Evaluation A (Pre-1980)): active; positive
- call [4]: active; positive
- mutagenic call [7]: active; positive
- mutagenic call [3]: active; positive

Compound: COc1cc2c(c3ccc4ccccc4c13)CC=C2C
- mutagenic call [3]: active; positive

Compound: C[CH2][Pb]([Cl])([CH2]C)[CH2]C
- mutagenic call (Species/Cell Type: Drosophila melanogaster, Assay Type: Aneuploidy, sex chromosome gain, chromosome aberrations, Assay Code: DAG-M, Evaluation Type: Evaluation A (Pre-1980)): inactive; negative
- mutagenic call (Species/Cell Type: Drosophila melanogaster, Assay Type: Aneuploidy, whole sex chromosome loss, chromosome aberrations, Assay Code: DAC+M, Evaluation Type: Evaluation A (Pre-1980)): active; positive

Compound: OCCN1CN(CCO)CN(CCO)C1
- mutagenic call [8]: no conclusion

Compound: O=C(OCC1=CCN2CC[C@@H](OC(=O)c3ccc([N+](=O)[O-])cc3)[C@@H]12)c1ccc([N+](=O)[O-])cc1
- mutagenic call [9]: active; positive

Compound: O=C(O)c1ccccc1[N+](=O)[O-]
- mutagenic call [10]: active; positive

Compound: O=[N+]([O-])c1ccccc1O
- mutagenic call (Species/Cell Type: Allium cepa, Assay Type: Chromosome aberrations, Assay Code: ALC-, Evaluation Type: Evaluation A (Pre-1980)): inactive; negative

Compound: COc1cc2c(c3oc4cccc(O)c4c(=O)c13)[C@@H]1C=CO[C@@H]1O2
- mutagenic call (Species/Cell Type: Bacillus subtilis (H17 vs M45), Assay Type: Rec-assay, spot test, DNA effects (bacterial DNA repair), Assay Code: REWT, Evaluation Type: Evaluation A (Pre-1980)): no conclusion
- mutagenic call (Species/Cell Type: Human diploid fibroblasts, Assay Type: Unscheduled DNA synthesis (UDS) in vitro, DNA effects, Assay Code: UDH+*, Activation: With metabolic activation, Evaluation Type: Evaluation A (Pre-1980)): active; positive
- mutagenic call (Species/Cell Type: Neurospora crassa, Assay Type: Forward gene mutation, Assay Code: NEF+, Evaluation Type: Evaluation A (Pre-1980)): active; positive
- mutagenic call (Species/Cell Type: Nonhuman, Assay Type: Chromosome aberrations in vitro, Assay Code: CY&+, Evaluation Type: Evaluation A (Pre-1980)): active; positive
- call [4]: active; positive
- mutagenic call (Species/Cell Type: Nonhuman, Assay Type: Sister-chromatid exchange (SCE) in vivo, Assay Code: SC3+D, Dose Response: With dose response, Evaluation Type: Evaluation B (Post-1980)): active; positive
- mutagenic call [11]: active; positive
- mutagenic call [10]: active; positive

Compound: CC(=O)Oc1cc(OC(C)=O)c2c(=O)c(OC(C)=O)c(-c3ccc(OC(C)=O)c(OC(C)=O)c3)oc2c1
- mutagenic call [3]: active; positive

Compound: OCCBr
- mutagenic call (Species/Cell Type: Escherichia coli polA (W3119 vs P3478), Assay Type: Rec-assay, DNA effects (bacterial DNA repair), Assay Code: RE1+, Evaluation Type: Evaluation A (Pre-1980)): active; positive
- mutagenic call (Species/Cell Type: Mouse, Sex: Male, Assay Type: Sperm morphology, Assay Code: SPI-, Evaluation Type: Evaluation A (Pre-1980)): inactive; negative
- mutagenic call [10]: active; positive
- mutagenic call (Species/Cell Type: Tradescantia species, Assay Type: Gene mutation, Assay Code: TRM+D, Dose Response: With dose response, Evaluation Type: Evaluation A (Pre-1980)): active; positive

Compound: CCN(CCNc1ccc(CO)c2sc3ccccc3c(=O)c12)CC(C)(C)O
- mutagenic call (Species/Cell Type: Mouse lymphoma (L5178Y) cells, Assay Type: Forward gene mutation at the thymidine kinase (TK) locus, chromosome aberrations, Assay Code: L51+, Evaluation Type: Evaluation A (Pre-1980)): active; positive

Compound: CC1=C2C(=CO[C@H](C)[C@H]2C)C(=O)C(C(=O)O)=C1O
- mutagenic call (Species/Cell Type: Bacillus subtilis (H17 vs M45), Assay Type: Rec-assay, spot test, DNA effects (bacterial DNA repair), Assay Code: REW+, Evaluation Type: Evaluation A (Pre-1980)): active; positive
- mutagenic call [5]: inactive; negative

Compound: NC(N)=NS(=O)(=O)c1ccc(N)cc1
- mutagenic call (Species/Cell Type: Salmonella typhimurium (one or more of the five standard strains: TA98, TA100, TA1535, TA1537, and TA1538), Assay Type: Histidine reverse gene mutation, Ames assay, Assay Code: SAL-, Evaluation Type: Evaluation A (Pre-1980)): inactive; negative

Compound: O=c1ccc2ccccc2o1
- mutagenic call [12]: active; positive

Compound: O[C@H]1[C@@H]2O[C@@H]2c2cc3ccc4cccc5ccc(c2[C@@H]1O)c3c45
- mutagenic call [2]: inactive; negative

Compound: ClC1=C(Cl)C2(Cl)C3C(Cl)C=CC3C1(Cl)C2(Cl)Cl (configuration not stated)
- mutagenic call (Species/Cell Type: Drosophila melanogaster, Assay Type: Sex-linked recessive lethal gene mutation, Assay Code: SRLT, Evaluation Type: Evaluation A (Pre-1980)): no conclusion
- call (Species/Cell Type: Nonhuman, Assay Code: CCG+L, Evaluation Type: Evaluation A (Pre-1980)): active; positive
- mutagenic call (Species/Cell Type: Zea mays (corn), Assay Type: Gene mutation, Assay Code: ZEM+, Evaluation Type: Evaluation A (Pre-1980)): active; positive

Compound: CCN(CC)c1ccc2cc3ccc(=[N+](CC)CC)cc-3oc2c1
- mutagenic call [6]: active; positive

Compound: CNc1nc2c(c(=O)n(C)c(=O)n2C)n1C
- mutagenic call [9]: active; positive

Compound: OCc1c2ccccc2cc2c1ccc1ccccc12
- mutagenic call (Species/Cell Type: Mouse prostate cells, Assay Type: Cell transformation, Assay Code: CTM+, Evaluation Type: Evaluation A (Pre-1980)): active; positive

Compound: N#Cc1ccc2ccccc2c1
- mutagenic call [12]: active; positive

Compound: O=NN1CCNC1=S
- mutagenic call [8]: no conclusion
- mutagenic call [7]: active; positive
- mutagenic call (Species/Cell Type: Rodents, Sex: Male, Assay Type: Dominant lethal test, Assay Code: DLT-, Evaluation Type: Evaluation A (Pre-1980)): inactive; negative

Compound: Nc1nnc(/C(=C/c2ccc([N+](=O)[O-])o2)c2ccco2)o1
- mutagenic call (Species/Cell Type: Human diploid fibroblasts, Assay Type: Unscheduled DNA synthesis (UDS) in vitro, DNA effects, Assay Code: UDH+, Evaluation Type: Evaluation A (Pre-1980)): active; positive

Compound: O=[N+]([O-])c1cnc(CO)n1CCO
- mutagenic call (Species/Cell Type: Human lymphocytes, Assay Type: Sister-chromatid exchange (SCE) in vitro, Assay Code: SCLT, Evaluation Type: Evaluation B (Post-1980)): no conclusion
- mutagenic call (Species/Cell Type: Human, Assay Type: Sister-chromatid exchange (SCE) in vitro, Assay Code: SC1T, Evaluation Type: Evaluation B (Post-1980)): no conclusion

Compound: O=[N+]([O-])c1cccc([N+](=O)[O-])c1Cl
- mutagenic call [1]: no conclusion

Compound: Cc1ccc(N)cc1
- mutagenic call (Species/Cell Type: Escherichia coli polA (W3110 vs P3478), Assay Type: Rec-assay, DNA effects (bacterial DNA repair), Assay Code: RE2-, Evaluation Type: Evaluation A (Pre-1980)): inactive; negative
- mutagenic call (Species/Cell Type: Escherichia coli polA (W3119 vs P3478), Assay Type: Rec-assay, DNA effects (bacterial DNA repair), Assay Code: RE1-, Evaluation Type: Evaluation A (Pre-1980)): inactive; negative
- mutagenic call [11]: active; positive
- mutagenic call [5]: inactive; negative
